The results in this text go back to US20040053847A1, “Diastereomeric peptitdes and pharmaceutical compositions comprising them” (priority 2000, published 2004).

Each structure is given as a SMILES string. pIC50: −log10 of the molar value. In brackets after ≈: the same amount, converted by molar mass. Square brackets hold non-standard residues; d marks the D form. Peptide text beside a SMILES is read from it.

For series [1], the system named is Acinetobacter baumannii ATCC 19606. As to the method:
(§1) The antibacterial activity of the peptides was examined in sterile 96-well plates (Nunc F96 microtiter plates) in a final volume of 100 μl as follows: Aliquots (50 μl) of a suspension containing bacteria at concentration of 1×10^6 Colony-Forming Units (CFU)/ml in culture LB (Lauria broth) medium were added to 50 μl of water containing the peptide in serial 2-fold dilutions in water. Inhibition of growth was determined by measuring the absorbance at 600 nm with a Microplate autoreader E1309 (Bio-tek Instruments), after an incubation time of 18-20 h at 37° C. Antibacterial activities were expressed as the minimal inhibitory concentration (MIC), the concentration at which 100% inhibition of growth was observed after 18-20 h of incubation. […]
(§2) The antibacterial activity of the resulting liposomal diastereomeric peptide preparations were examined as described in Example 2 above. The MICs of liposomal peptide 9 in various lipid compositions and peptide/lipid ratios (as described above), or of liposomes at lipid compositions equivalent to the loaded_liposomes (not shown) or peptide 9 alone, were determined using the following bacteria: Acinetobacter baumannii ATCC 19606, and Staphylococcus aureus ATCC 6538P.

In series [2] the test system is Staphylococcus aureus ATCC 6538P. As to the method:
as §1, §2

Another series relates to human breast MCF-7 cells. Put plainly: Xenograft model of human breast MCF-7 cells in SCID mice. It counts as in vivo. The following applies: mouse, in vivo. On the procedure:
The in-vivo anticancer assay was conducted on SCID (Severe Combined Immune Deficiency) mice using the xenograft model of human breast MCF-7 cells. Groups of 6 SCID female mice weighing 18-20 g (6-week old), bred in an animal isolator (IVC racks under specific pathogen-free (SPF) conditions at 24±1° C., were used. Viable human breast carcinoma MCF-7 cells (ATCC HTB-22−1×10^7 cells in 0.2 ml of PBS) were injected subcutaneously (s.c.) into the dorsal side of SCID mice. 50 μg/mouse of estradiol benzoate was injected s.c. weekly as a supplement for 4 weeks. […] Mitomycin at a dose of 2 mg/kg was administered intraperitoneally (IP) twice a week for 5 doses. The tumor size, body weight and the signs of overt animal toxicity after each treatment were recorded and observed. At the end of the experiment, hematological analysis was carried out.
(A xenograft is tissue or cells of one species grown in another, often human tumour cells in immunodeficient mice.)

The test system of series [3] is PC-3 prostate adenocarcinoma. The class given is cell-based, human. To be noted: 24 h. On the procedure:
(§3) Aliquots of 100 μl of tumor cell suspension (about 2.5-5×10^3/well) were placed in 96-well microtiter plates in an atmosphere of 5% CO2 at 37° C. […] At the end of incubation, 20 μl of AlamarBlue 75% reagent was added to each well for another 6-hour incubation before detection of cell viability by fluorescence intensity. Fluorescence intensity was measured using a Spectraflour Plus plate reader with excitation at 530 nm and emission at 590 nm. The assays were used to detect changes in cell proliferation based on the ability of viable cells to cause AlamarBlue to change from its oxidized (non-fluorescent, blue) to a reduced (fluorescent, red) form. With the results obtained from the AlamarBlue reaction, cell proliferation can be quantified and metabolic activity of viable cells can be examined.

The subject of series [4] is HT-29 colon adenocarcinoma. The class given is cell-based, human. The following applies: 24 h. As to the method:
as §3

In a further series the test system is A549 lung carcinoma. It counts as cell-based, human. To be noted: 24 h. On the procedure: as §3
The subject of series [5] is MCF-7 breast adenocarcinoma. It counts as cell-based, human. The following applies: 24 h. On the procedure:
as §3

The test system of series [6] is SK-MEL- (ATCC HTB-70) malignant melanoma. It counts as cell-based, human. The following applies: 24 h. As to the method:
as §3

The nature of series [7]: In vivo toxicity, single i.v. bolus injection in CD1 mice. The arrangement: species or system CD1 male mice. As to the method: The in vivo toxicity of the liposomal peptide 9 preparation composed of the lipids PC/PG (9:1 w/w) at a 10:1 w/w lipid/peptide ratio was examined. Groups of 5 CD1 male mice weighing 24-27 g (5-week old), bred in an animal isolator (IVC racks) under specific pathogen-free (SPF) conditions at 24±1° C., were used. Twelve mg/kg liposomal peptide 9 or peptide 9 alone dissolved in PBS in a dosing volume of 10 ml/kg, were administered by single i.v. bolus injection via the mice tail vein. In parallel, control groups received i.v. injections of equivalent liposomes alone or PBS in a dosing volume of 10 ml/kg.

A short description of series [8]: Cell selectivity, Trypan blue cell viability, LC50. It counts as cell-based, mouse. To be noted: mouse, NIH-3T3 fibroblasts; 50% cell mortality after 24 h incubation, medium without serum; read-out: Lethal Concentration (LC50), NIH-3T3 fibroblasts.
For series [9], the system named is B16 F10 mouse melanoma cell line. Put plainly: In vitro anticancer activity, Trypan blue cell viability, LC50. To be noted: 50% cell mortality after 24 h incubation, medium without serum. On the procedure:
The anticancer activity of the diastereomers 1, 2, 8, 9 and 10 was examined against B16 F10 mouse melanoma cell line. Melanoma cells were grown in RPMI-1640 medium supplemented with 10% fetal calf serum and antibiotics, at 37° C., in humidified atmosphere at 5% CO2 and 95% air. In addition, the cell-selectivity of the diastereomeric peptides was studied by examining their effect on NIH-3T3 normal fibroblasts cell line. NIH-3T3 mouse fibroblasts cells were grown in DMEM medium supplemented with 10% bovine calf serum and antibiotics under the same conditions as described above for B16 F10 mouse melanoma cells. Melanoma cells (2×10^5 cells ml^−1) or NIH-3T3 cells (2.5×10^5 cells ml^−1) were seeded in tissue culture plates (3.5 cm). After 48 h, cells were washed thrice with the corresponding medium. Then the cells were incubated at 37° C. in medium (without serum and antibiotics) in the presence of the tested diastereomeric peptides dissolved in PBS, at different concentrations. […] Following 24 h of incubation, the cells were harvested with trypsin (0.25%)-EDTA (0.05%) and centrifuiged for 10 min at 270×g. The precipitated cells were suspended in the corresponding medium and counted in a hemocytometer (Neubauer). Cell viability was determined by Trypan blue dye exclusion.

In the case of `CC(C)C[C@H](NC(=O)[C@H](CCCNC(=N)N)NC(=O)[C@@H](CC(C)C)NC(=O)[C@H](CC(C)C)NC(=O)[C@@H](N)CCCCN)C(=O)N[C@@H](CC(C)C)C(=O)N[C@H](CCCCN)C(=O)N[C@H](CCCCN)C(=O)N[C@@H](CC(C)C)C(=O)N[C@H](CC(C)C)C(=O)N[C@@H](CCCNC(=N)N)C(=O)N[C@@H](CC(C)C)C(=O)N[C@H](CC(C)C)C(=O)N[C@@H](CC(C)C)C(=O)N[C@@H](CCCCN)C(N)=O` [Peptide 9, [D]-L^3,10,13,K^7,8-K4R2L9] (H-KL[dL]RLL[dK][dK]L[dL]RL[dL]LK-NH2), the “MIC of liposomal peptide 9, A. baumannii” value in [1] was determined as 3.1 µg/mL. Also, the “MIC of liposomal peptide 9, S. aureus” value in series [2] was determined as 12.5 µg/mL. Moreover, in the series with human breast MCF-7 cells, the PLT was 1.31e+06 µL⁻¹; the RBC is 11.18 ± 0.11 × 10^6/μl; the “Reduction of RBC” value is given as “only a slight reduction in RBC”; the “Reduction of WBC and platelets” value was “did not cause a reduction in WBC and platelets”. In the series with human breast MCF-7 cells, this compound displayed a WBC of 2220 µL⁻¹. The compound further had a pIC50 in [3] of 5.80. This compound also gave a pIC50 in [4] of 5.66. This compound gave a pIC50 in the series with A549 lung carcinoma of 5.85. Further, the pIC50 in series [5] is 5.48. In addition, the pIC50 in series [6] was 5.92. In series [7] (12 mg/kg injected i.v.), this compound displayed a Mortality of 80%. Further, the Incidence of mortality in series [7] (12 mg/kg single i.v. injection) is recorded as 4/5. Also, the CC50 at 24 h in [8] worked out at 30 µg/mL (≈ 16.1 µM). Also, the “Lethal Concentration (LC50), B16-F10 melanoma” value in [9] came to 2 µg/mL.

The pIC50 is the negative decadic logarithm of the IC50, by convention in mol/L.
